Where two headings read alike, the source gives them in different places. One block for each compound: values may come before it.
Experiments:
[1] = biological target: T1, Cyp A (Homo sapiens, UniProt P62937)
Protocol: (§1) The cyclophilin binding properties of the compounds were assessed by Surface Plasmon Resonance (SPR) against Cyp A, B and D isoforms (Table 1, representative sensorgrams are shown in Figure 3A).[35]
Surface Plasmon Resonance (SPR)
(§2) SPR measurements were performed on a Biacore T200 instrument (Cytiva). Ni2+ -
(§3) nitrilotriacetic acid (NTA) sensor chips, 1-ethyl-3-(3-diaminopropyl) carbodiimide
(§4) hydrochloride (EDC) and N hydroxy succinimide (NHS) were purchased from Cytiva.
(§5) Immobilization and covalent stabilization of His-Cyps Pure His-cyclophilins on the NTA
(§6) sensor chip was performed essentially as described. [Wear et al., 2017, FEBS OpenBio], using
(§7) 200 nM concentrations of each protein, in Running Buffer (PBS, pH7.4; 0.05 % surfactant P20,
(§8) 2% v/v ethanol; 50 µM EDTA), at 30 µl min-1 with 60 second contact times on the activated
(§9) NTA surfaces. This gave signals of 1,921 RU for His-CypA, 1932 RU for His-CypB and 1,397
(§10) RU for His-CypD. Specific surface protein activity was assayed by passing saturating amounts
(§11) activity were obtained for His-CypA, -B and –D, respectively.
Kinetic titration experiments
(§12) Single cycle kinetic titration binding experiments were performed in triplicate at 25 °C. 3-fold
(§13) injected over the sensor surface, at 100 µl min-1 with a 90 s contact time and a 90 s dissociation
(§14) time. The sensor surface was regenerated between experiments by dissociating any formed
(§15) complex in running buffer for at least 1,200 seconds. The apparent on-rate (k+) and off-rate (k-
(§16) ) constants and the equilibrium dissociation constant (Kd) were calculated from reference

[2] = biological target: Cyp D (Homo sapiens, UniProt P30405)
Protocol: as §1
Surface Plasmon Resonance (SPR)
as §2, §3, §4, §5, §6, §7, §8, §9, §10, §11
Kinetic titration experiments
as §12, §13, §14, §15, §16

[3] = biological target: T2, Cyp B (Homo sapiens, UniProt P23284); experiment: biochemical
Protocol: as §1
Surface Plasmon Resonance (SPR)
as §2, §3, §4, §5, §6, §7, §8, §9, §10, §11
Kinetic titration experiments
as §12, §13, §14, §15, §16

[4] = test system: iPSC-derived hepatocytes; experiment: In vitro hepatic steatosis (MASH) assay; type: cell-based; conditions: 48 h treatment
[5] = Intrinsic clearance, rat liver microsomes; type: in vitro ADME; conditions: for microsomal CLint: Table 3, read-out: Rat Liver microsomes CL; for half-life: read-out: Rat Liver microsomes t1/2
[6] = Intrinsic clearance, human liver microsomes; type: in vitro ADME; conditions: for microsomal CLint: Table 3, read-out: Human Liver microsomes CL; for half-life: read-out: Human Liver microsomes t1/2
[7] = Intrinsic clearance, rat hepatocytes; type: in vitro ADME; conditions: hepatocytes; for hepatocyte CLint: Table 3, read-out: Rat Hepatocytes CL; for half-life: read-out: Rat Hepatocytes t1/2
[8] = Intrinsic clearance, human hepatocytes; type: in vitro ADME; conditions: hepatocytes; for hepatocyte CLint: Table 3, read-out: Human Hepatocytes CL; for half-life: read-out: Human Hepatocytes t1/2
[9] = biological target: T2, Cyp B; conditions: from SPR Kd
Protocol: as §1
Surface Plasmon Resonance (SPR)
as §2, §3, §4, §5, §6, §7, §8, §9, §10, §11
Kinetic titration experiments
as §12, §13, §14, §15, §16

[10] = Caco-2 permeability; conditions: human, Caco-2
[11] = test system: Caco-2; experiment: Caco-2 permeability; conditions: apparent permeability A-B
[12] = test system: Salmonella typhimurium TA98; experiment: Ames fluctuation test TA98; conditions: for Ames fluctuation test TA98 +S9: with rat liver S9; for Ames fluctuation test TA98 –S9: without S9
[13] = test system: Salmonella typhimurium TA100; experiment: Ames fluctuation test TA100; conditions: for Ames fluctuation test TA100 +S9: with rat liver S9; for Ames fluctuation test TA100 –S9: without S9
[14] = test system: Salmonella typhimurium TA1535; experiment: Ames fluctuation test TA1535; conditions: for Ames fluctuation test TA1535 +S9: with rat liver S9; for Ames fluctuation test TA1535 –S9: without S9
[15] = test system: Salmonella typhimurium TA1537; experiment: Ames fluctuation test TA1537; conditions: for Ames fluctuation test TA1537 +S9: with rat liver S9; for Ames fluctuation test TA1537 –S9: without S9
[16] = Aqueous kinetic solubility, shake-flask
Protocol: (§17) These experiments were subcontracted to Eurofins.
(§18) Kinetic solubility measurements were carried out using a shake-flask technique. Compounds
(§19) were incubated for 24 hours at room temperature. Aqueous solubility (μM) was determined by
(§20) comparing the peak area of the principal peak in a calibration standard (200 μM) containing
(§21) organic solvent (methanol/water, 60/40, v/v) with the peak area of the corresponding peak in a
(§22) buffer sample. In addition, chromatographic purity (%) was defined as the peak area of the
(§23) principal peak relative to the total integrated peak area in the HPLC chromatogram of the
(§24) calibration standard. A chromatogram of the calibration standard of each test compound, along
(§25) with a UV/VIS spectrum with labeled absorbance maxima, was generated.
(§26) These were measured using a shake-flask technique. Compounds were incubated for 60 min at
(§27) room temperature. The total amount of compound was determined as the peak area of the
(§28) principal peak in a calibration standard (100 μM) containing organic solvent (methanol/water,
(§29) 60/40, v/v). The amount of compound in buffer was determined as the combined, volume
(§30) corrected, and weighted areas of the corresponding peaks in the aqueous phases of three
(§31) organic-aqueous samples of different composition. An automated weighting system was used
(§32) to ensure the preferred use of raw data from those samples with well quantifiable peak signals.
(§33) The amount of compound in organic was calculated by subtraction. Subsequently, Log D was
(§34) calculated as the Log10 of the amount of compound in the organic phase divided by the amount
of compound in the aqueous phase.

[17] = Partition coefficient (Log D), shake-flask; conditions: octanol/water
Protocol: as §17, §18, §19, §20, §21, §22, §23, §24, §25, §26, §27, §28, §29, §30, §31, §32, §33, §34
of compound in the aqueous phase.

[18] = test system: Salmonella typhimurium strains (TA98, TA100, TA1535, TA1537); experiment: Ames tests, all strains (summary in words); conditions: in absence and presence of liver S9 fractions
[19] = biological target: T1, Cyp A; experiment: SPR kinetic titration, Cyp A
Protocol: as §1
Surface Plasmon Resonance (SPR)
as §2, §3, §4, §5, §6, §7, §8, §9, §10, §11
Kinetic titration experiments
as §12, §13, §14, §15, §16

[20] = design: method as in PMID 38324483; conditions: phase III trial; cited from earlier work
[21] = test system: permeabilised human hepatocyte (HepG2) cells; experiment: Calcium Retention Capacity assay; type: cell-based; conditions: Homo sapiens; digitonin-permeabilised HepG2 cells; read-out: EC50 CRC assay
Protocol: Calcium Retention Capacity Assay
The compounds were prepared as a 10 mM stock solution in 100% DMSO. Subsequent dilutions were made in 100% DMSO and then in assay buffer to 10-fold the final concentration.
HepG2 cells were permeabilized with 100 µM digitonin for 10 min in ice cold buffer containing 1mM EGTA. Following two wash steps to remove the digitonin, the cells were plated into 96 well black and clear plates at 106 cell per well in a 180 µL assay buffer containing 0.5 µM Calcium Green 5N. Compounds dilution were prepared in DMSO to 1000 fold the final concentration, diluted 1:100 in assay buffer and added to the assay as 20 µL per well. The assay buffer contained 5 mM glutamate and 2.5 mM malate. The cell plate was immediately run on the FLIPR Tetratm which added 5 µL of 200 µM (5 µM) calcium chloride every 5 minutes whilst reading the plate every 3 seconds. The area under the curve (AUC) of the raw trace was calculated at each concentration. AUC values were plotted against concentration and EC50 values calculated. Experiments were repeated three times and the EC50 value was determined from a curve fitted to the averaged replicates.

[22] = Kd Cyp B, SPR-derived dissociation constant, 25 °C

T2 sequence (P23284 32-216 limits assumed): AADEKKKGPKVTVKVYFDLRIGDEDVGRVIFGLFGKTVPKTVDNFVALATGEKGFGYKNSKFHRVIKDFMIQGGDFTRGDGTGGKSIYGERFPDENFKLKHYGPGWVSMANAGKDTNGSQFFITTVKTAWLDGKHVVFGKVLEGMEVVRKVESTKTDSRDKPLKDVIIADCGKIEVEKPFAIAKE
T1 sequence (P62937 whole entry): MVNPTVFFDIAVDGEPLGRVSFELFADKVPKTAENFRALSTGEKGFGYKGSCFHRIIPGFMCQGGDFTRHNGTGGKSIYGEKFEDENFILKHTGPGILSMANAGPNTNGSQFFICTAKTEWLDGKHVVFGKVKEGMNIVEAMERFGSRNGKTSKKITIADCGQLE
Chain of Cyp D (P30405 42-207): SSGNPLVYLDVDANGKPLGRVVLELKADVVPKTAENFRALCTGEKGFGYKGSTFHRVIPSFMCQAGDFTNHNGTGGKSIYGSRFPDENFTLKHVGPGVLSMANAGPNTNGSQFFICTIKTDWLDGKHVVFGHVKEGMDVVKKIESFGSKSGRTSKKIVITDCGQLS

Kd [2]: 6300 ± 1600 nM
Kd [3]: 3800 ± 1300 nM
Kd [19]: 6700 ± 2600 nM
Structure (SMILES): CSc1ccccc1[C@H]1CCCN1C(=O)CN1C(=O)CN(Cc2cc(F)c(N)c(F)c2)C1=O [Compound 15, 1-[(4-Amino-3,5-difluoro-phenyl)methyl]-3-[2-oxo-2-[(2R)-2-(2-methylsulfanylphenyl)pyrrolidine-1-yl]ethyl]imidazolidine-2,4-dione]

Kd [1]: 7100 ± 1250 nM
Kd [2]: 9100 ± 900 nM
Kd [3]: 4500 ± 500 nM
Structure (SMILES): CSc1ccccc1[C@H]1CCCN1C(=O)CN1C(=O)N(Cc2ccc(N)c(Cl)c2)CC1=NNC(C)=O [Compound 16, N-[[1-[(4-amino-3-chloro-phenyl)methyl]-2-oxo-3-[2-oxo-2-[(2R)-2-(2-methylsulfanylphenyl)pyrrolidin-1-yl]ethyl]imidazolidin-4-ylidene]amino]acetamide]

Kd [1]: > 10000 nM
Kd [2]: > 10000 nM
Kd [3]: > 10000 nM
Structure (SMILES): CC(=O)NN=C1CN(Cc2cnc(N)c(Cl)c2)C(=O)N1CC(=O)N1CCC[C@@H]1c1ccccc1Br [Compound 19, N-[[1-[(6-amino-5-chloro-3-pyridyl)methyl]-2-oxo-3-[2-oxo-2-[(2R)-2-(2-bromophenyl) Pyrrolidin-1-yl]ethyl]imidazolidin-4-ylidene]amino]acetamide]

Kd [1]: > 10000 nM
Kd [2]: > 10000 nM
Kd [3]: > 10000 nM
Structure (SMILES): CSc1ccccc1[C@H]1CCCN1C(=O)CN1C(=O)N(Cc2cnc(N)c(Cl)c2)CC1=NNC(C)=O [Compound 18, N-[[1-[(6-amino-5-chloro-3-pyridyl)methyl]-3-[2-[(2R)-2-(2-methylsulfanylphenyl) Pyrrolidin-1-yl]-2-oxo-ethyl]-2-oxo-imidazolidin-4-ylidene]amino]acetamide]

Kd [1]: > 10000 nM
Kd [2]: > 10000 nM
Kd [3]: > 10000 nM
Structure (SMILES): CC(=O)NN=C1CN(Cc2ccc(N)c(Cl)c2)C(=O)N1CC(=O)N1CCC[C@@H]1c1ccccc1Br [Compound 17, N-[[1-[(4-amino-3-chloro-phenyl)methyl]-3-[2-[(2R)-2-(2-bromophenyl)pyrrolidin-1-yl]-2-oxo-ethyl]-2-oxo-imidazolidin-4-ylidene]amino]acetamide]

Second part, the compound before the results:

Structure (SMILES): CSc1ccccc1[C@H]1CCCN1C(=O)CNC(=O)N(Cc1cnc(N)c(Cl)c1)Cc1nnc(C)s1 [Compound 14, 1-[(6-Amino-5-chloro-3-pyridyl)methyl]-1-[(5-methyl-1,3,4-thiadiazol-2-yl)methyl]-3-[2-oxo-2-[(2R)-2-(2-methylsulfanylphenyl)pyrrolidin-1-yl]ethyl]urea]
Kd [1]: 960 ± 130 nM
Kd [2]: 2400 ± 430 nM
Kd [3]: 92 ± 75 nM

Structure (SMILES): CSc1ccccc1[C@H]1CCCN1C(=O)CNC(=O)N(Cc1cnc(N)nc1)Cc1ncc(C)s1 [Compound 12, 1-[(2-Aminopyrimidin-5-yl)methyl]-1-[(5-methylthiazol-2-yl)methyl]-3-[2-oxo-2-[(2R)-2-(2-methylsulfanylphenyl)pyrrolidin-1-yl]ethyl]urea]
effect on hepatocyte overall lipid levels and lipid droplet size (in words) [4]: lack of potency
EC50 ([4]; Hepatocyte, 48 h, read-out: EC50 MASH assay): > 10000 nM
microsomal CLint [5]: 449 µL/min/mg
half-life [5]: 15 min
microsomal CLint [6]: 604 µL/min/mg
half-life [6]: 11 min
hepatocyte CLint [7]: 12 µL/min/1e6 cells
half-life [7]: 84 min
hepatocyte CLint [8]: 11 µL/min/1e6 cells
half-life [8]: 94 min
Kd [1]: 7300 ± 1000 nM
selectivity for Cyp B over Cyp A [9]: 80 fold
Kd [2]: 1500 ± 500 nM
Kd [3, 22]: 88 ± 20 nM
efflux ratio [10]: 16
Caco-2 A-B [11]: 0.8 10^–6 cm/s
Ames fluctuation test TA98 +S9 [12]: neg/neg
Ames fluctuation test TA98 –S9 [12]: neg/neg
Ames fluctuation test TA100 +S9 [13]: neg/neg
Ames fluctuation test TA100 –S9 [13]: neg/neg
Ames fluctuation test TA1535 +S9 [14]: neg/neg
Ames fluctuation test TA1535 –S9 [14]: neg/neg
Ames fluctuation test TA1537 +S9 [15]: neg/neg
Ames fluctuation test TA1537 –S9 [15]: neg/neg
solubility at 24 h ([16]; PBS, pH 7.4): > 200 µM
solubility at 24 h ([16]; simulated gastric fluid): > 200 µM
solubility at 24 h ([16]; simulated intestinal fluid): > 200 µM
logD at 1 h, 100 µM [17]: 1.27
Ames result in all strains tested [18]: negative

Structure (SMILES): CC(C)c1cc(Oc2c(Cl)cc(-n3nc(C#N)c(=O)[nH]c3=O)cc2Cl)n[nH]c1=O [Resmetirom, reference compound]
EC50 ([4]; 95% CI [lower limit, upper limit], listed as Res, read-out: EC50 steatosis): 261 nM
EC50 ([4]; Hepatocyte, 48 h, 95% CI [lower limit, upper limit], read-out: EC50 steatosis): ~300 nM
patients with improved liver pathology [20]: 25–30%

Structure (SMILES): CSc1ccccc1[C@@H]1CCCN1C(=O)CNC(=O)N(Cc1ccc2c(c1)[C@@H]1C[C@@H](N2)[C@H](O)CO1)Cc1nnn(C)n1 [Compound 4, 1-[[(1S,9R,10S)-10-Hydroxy-12-oxa-8-azatricyclo[7.3.1.0,^27]trideca-2,4,6-trien-4-yl]methyl]-3-[2-[(2S)-2-(2-methylsulfanylphenyl)pyrrolidin-1-yl]-2-oxo-ethyl]-1-[(2-methyltetrazol-5-yl)methyl]urea]
EC50 [21]: 4120 nM
Kd [1]: 310 ± 40 nM
Kd [2]: 400 ± 30 nM
Kd [3, 22]: 420 ± 80 nM

Structure (SMILES): C#CCN(Cc1cc(F)c(N)c(F)c1)C(=O)NCC(=O)N1CCC[C@@H]1c1ccccc1SC [Compound 7, 1-[(4-Amino-3,5-difluoro-phenyl)methyl]-3-[2-oxo-2-[(2R)-2-(2-methylsulfanylphenyl)pyrrolidin-1-yl]ethyl]-1-prop-2-ynyl-urea]
Kd [1]: 8750 ± 2900 nM
Kd [2]: 5850 ± 2000 nM
Kd [3]: 3740 ± 780 nM

Structure (SMILES): CSc1ccccc1[C@H]1CCCN1C(=O)CNC(=O)N(Cc1cnc(N)nc1)Cc1nnc(C)s1 [Compound 13, 1-[(2-Aminopyrimidin-5-yl)methyl]-1-[(5-methyl-1,3,4-thiadiazol-2-yl)methyl]-3-[2-oxo-2-[(2R)-2-(2-methylsulfanylphenyl)pyrrolidin-1-yl]ethyl]urea]
Kd [1]: 670 ± 100 nM
Kd [2]: 1200 ± 300 nM
Kd [3]: 184 ± 7 nM

Structure (SMILES): Cn1nnc(CN(Cc2ccc(N)c(Cl)c2)C(=O)NCC(=O)N2CCC[C@@H]2c2ccccc2Br)n1 [Compound 10, 1-[(4-Amino-3-chloro-phenyl)methyl]-1-[(2-methyltetrazol-5-yl)methyl]-3-[2-oxo-2-[(2R)-2-(2-bromophenyl)pyrrolidin-1-yl]ethyl]urea]
microsomal CLint [5]: 238 µL/min/mg
half-life [5]: 29 min
microsomal CLint [6]: 344 µL/min/mg
half-life [6]: 20 min
hepatocyte CLint [7]: < 8 µL/min/1e6 cells
half-life [7]: > 120 min
hepatocyte CLint [8]: 12 µL/min/1e6 cells
half-life [8]: 85 min
Kd [1]: 200 ± 40 nM
Kd [2]: 580 ± 100 nM
Kd [3]: 35 ± 6 nM
efflux ratio [10]: 1.9
Caco-2 A-B [11]: 6.6 10^–6 cm/s
Ames fluctuation test TA98 +S9 [12]: neg/neg
Ames fluctuation test TA98 –S9 [12]: neg/neg
Ames fluctuation test TA100 +S9 [13]: neg/neg
Ames fluctuation test TA100 –S9 [13]: neg/neg
Ames fluctuation test TA1535 +S9 [14]: neg/neg
Ames fluctuation test TA1535 –S9 [14]: neg/neg
Ames fluctuation test TA1537 +S9 [15]: neg/neg
Ames fluctuation test TA1537 –S9 [15]: neg/neg
solubility at 24 h ([16]; PBS, pH 7.4): > 200 µM
solubility at 24 h ([16]; simulated gastric fluid): > 200 µM
solubility at 24 h ([16]; simulated intestinal fluid): > 200 µM
logD at 1 h, 100 µM [17]: 1.74
Ames result in all strains tested [18]: negative

Structure (SMILES): CSc1ccccc1[C@H]1CCCN1C(=O)CNC(=O)N(Cc1cc(F)c(N)c(F)c1)Cc1nnn(C)n1 [Compound 5, 1-[(4-Amino-3,5-difluoro-phenyl)methyl]-1-[(2-methyltetrazol-5-yl)methyl]-3-[2-oxo-2-[(2R)-2-(2-methylsulfanylphenyl)pyrrolidin-1-yl]ethyl]urea]
Kd [1]: 1160 ± 200 nM
Kd [2]: 1010 ± 120 nM
Kd [3]: 200 ± 40 nM

Structure (SMILES): CSc1ccccc1[C@H]1CCCN1C(=O)CNC(=O)N(Cc1ccc(N)cc1)Cc1nnn(C)n1 [Compound 2, 1-[(4-Aminophenyl)methyl]-1-[(2-methyltetrazol-5-yl)methyl]-3-[2-oxo-2-[(2R)-2-(2-methylsulfanylphenyl)pyrrolidin-1-yl]ethyl]urea]
EC50 [21]: 1390 nM
Kd [1]: 90 ± 10 nM
Kd [2]: 80 ± 10 nM
Kd [3]: 12 ± 4 nM

Structure (SMILES): CSc1ccccc1[C@H]1CCCN1C(=O)CNC(=O)N(Cc1cc(F)c(N)c(F)c1)Cc1cn(C)nn1 [Compound 6, 1-[(4-Amino-3,5-difluoro-phenyl)methyl]-1-[(1-methyltriazol-4-yl)methyl]-3-[2-oxo-2-[(2R)-2-(2-methylsulfanylphenyl)pyrrolidin-1-yl]ethyl]urea]
Kd [1]: 4600 ± 2400 nM
Kd [2]: 2970 ± 800 nM
Kd [3]: 630 ± 100 nM
